# Laboratory results as given in patent publication US9670231B2, “Fused tricyclic amide compounds as multiple kinase inhibitors” (BEIGENE, LTD., priority 2013, dated 2017).
# Legend:
# Format in all cases: biochemical
# WT EGFR kinase domain = WT EGFR kinase domain (Homo sapiens (Human), UniProt P00533); experiment: EGFR enzymatic assay, TR-FRET, WT EGFR
# Procedure: (§1) Compounds disclosed herein were tested against WT EGFR kinase domain (aa.669-1210, Carna Biosciences, 08-115), EGFR T790M/L858R kinase domain (aa.669-1210, Carna Biosciences, 08-510) and EGFR L858R kinase domain (aa.669-1210, Carna Biosciences, 08-502) in assays based on time-resolved fluorescence-resonance energy transfer methodology. The assay was carried out in 384-well low volume black plate in a reaction mixture containing EGFR kinases, 20 LM for EGFR WT and T790M/L858R, and 125 LM for EGFR L858R), biotin-TK substrate and 0-5 LM compounds in buffer containing 50 mM HEPES pH7.5, 10 mM MgCl2, 1 mM EGTA, 0.01% Brij-35, 2.5 mM DTT, 0.1% BSA. The kinase was incubated with the compounds disclosed herein at room temperature for 120 minutes and the reaction was initiated by the addition of ATP and biotin-TK substrate. After reaction at room temperature for 30 minutes, an equal volume of stop/detection solution was added according to the manufacture's instruction (CisBio Bioassays). The stop/detection solution contained TK-Antibody-Cryptate and Streptavidin-XL665 in buffer containing 25 mM Tris pH7.4, 400 mM KF, 50 mM EDTA, 0.01% BSA, 0.01% Triton X-100. Plates were sealed and incubated at room temperature for 1 hour, and the TR-FRET signals were read on BMG PHERAstar FS instrument. The IC50 of an inhibitor was derived from fitting the % inhibition data at each compound concentration to the four-parameter logistic equation by Graphpad Prism software.
# B-Raf (V600E) = B-Raf (V600E) (Homo sapiens (Human), UniProt P15056, V600E); experiment: Raf IC50 assay, TR-FRET, B-Raf (V600E); settings: 0.1 mM ATP; read-out: IC50 BRAF-V600E
# B-Raf (V600E), sequence (P15056 whole entry V600E): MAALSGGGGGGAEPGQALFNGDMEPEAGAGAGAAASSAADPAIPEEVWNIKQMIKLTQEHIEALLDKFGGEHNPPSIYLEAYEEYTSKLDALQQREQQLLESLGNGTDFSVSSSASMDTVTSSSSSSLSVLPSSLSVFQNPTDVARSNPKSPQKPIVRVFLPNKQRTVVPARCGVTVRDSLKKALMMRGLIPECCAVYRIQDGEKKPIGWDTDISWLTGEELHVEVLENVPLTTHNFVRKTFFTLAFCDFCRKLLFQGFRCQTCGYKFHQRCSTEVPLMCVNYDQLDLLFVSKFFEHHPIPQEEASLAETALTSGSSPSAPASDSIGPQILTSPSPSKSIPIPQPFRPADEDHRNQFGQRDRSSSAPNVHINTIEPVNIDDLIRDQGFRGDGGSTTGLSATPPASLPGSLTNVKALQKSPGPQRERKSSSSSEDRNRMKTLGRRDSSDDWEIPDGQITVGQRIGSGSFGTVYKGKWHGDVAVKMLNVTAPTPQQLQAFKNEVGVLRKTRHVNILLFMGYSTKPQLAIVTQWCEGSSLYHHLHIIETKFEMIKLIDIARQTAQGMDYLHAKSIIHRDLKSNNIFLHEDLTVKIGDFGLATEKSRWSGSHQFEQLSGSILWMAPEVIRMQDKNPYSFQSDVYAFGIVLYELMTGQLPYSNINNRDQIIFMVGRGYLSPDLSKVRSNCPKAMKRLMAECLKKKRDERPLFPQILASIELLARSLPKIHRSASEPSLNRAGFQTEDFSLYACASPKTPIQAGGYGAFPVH
# Procedure: The enzyme was incubated with the compounds disclosed herein at room temperature for 60 minutes and the reactions were initiated by the addition of ATP and GST-MEK1. After reaction at room temperature for 60 minutes, an equal volume of stop/detection solution was added according to the manufacture's instruction (CisBio Bioassays). […] The IC50 for each compound was derived from fitting the dose-response % inhibition data to the four-parameter logistic model by Graphpad Prism software.
# EGFR L858R kinase domain = EGFR L858R kinase domain (Homo sapiens (Human), UniProt P00533, L858R); experiment: EGFR enzymatic assay, TR-FRET, EGFR L858R
# EGFR L858R kinase domain, sequence (P00533 669-1210 L858R): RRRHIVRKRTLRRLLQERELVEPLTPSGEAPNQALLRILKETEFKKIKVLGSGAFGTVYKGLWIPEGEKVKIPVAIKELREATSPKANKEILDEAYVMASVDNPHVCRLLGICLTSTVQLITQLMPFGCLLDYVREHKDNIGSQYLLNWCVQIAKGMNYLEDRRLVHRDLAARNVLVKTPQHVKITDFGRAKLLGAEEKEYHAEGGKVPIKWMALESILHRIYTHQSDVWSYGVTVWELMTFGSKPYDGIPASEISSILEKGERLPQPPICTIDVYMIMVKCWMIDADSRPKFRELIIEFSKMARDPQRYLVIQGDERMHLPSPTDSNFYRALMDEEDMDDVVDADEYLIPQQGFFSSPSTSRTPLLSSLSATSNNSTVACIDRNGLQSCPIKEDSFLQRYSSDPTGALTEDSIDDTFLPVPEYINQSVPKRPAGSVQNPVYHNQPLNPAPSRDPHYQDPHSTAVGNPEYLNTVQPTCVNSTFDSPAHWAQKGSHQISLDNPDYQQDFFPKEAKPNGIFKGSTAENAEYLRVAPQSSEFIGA
# Procedure: as §1
# [1] = biological target: EGFR T790M/L858R kinase domain (Homo sapiens (Human), UniProt P00533, L858R/T790M); experiment: EGFR enzymatic assay, TR-FRET, EGFR T790M/L858R
# EGFR T790M/L858R kinase domain, sequence (P00533 669-1210 T790M/L858R): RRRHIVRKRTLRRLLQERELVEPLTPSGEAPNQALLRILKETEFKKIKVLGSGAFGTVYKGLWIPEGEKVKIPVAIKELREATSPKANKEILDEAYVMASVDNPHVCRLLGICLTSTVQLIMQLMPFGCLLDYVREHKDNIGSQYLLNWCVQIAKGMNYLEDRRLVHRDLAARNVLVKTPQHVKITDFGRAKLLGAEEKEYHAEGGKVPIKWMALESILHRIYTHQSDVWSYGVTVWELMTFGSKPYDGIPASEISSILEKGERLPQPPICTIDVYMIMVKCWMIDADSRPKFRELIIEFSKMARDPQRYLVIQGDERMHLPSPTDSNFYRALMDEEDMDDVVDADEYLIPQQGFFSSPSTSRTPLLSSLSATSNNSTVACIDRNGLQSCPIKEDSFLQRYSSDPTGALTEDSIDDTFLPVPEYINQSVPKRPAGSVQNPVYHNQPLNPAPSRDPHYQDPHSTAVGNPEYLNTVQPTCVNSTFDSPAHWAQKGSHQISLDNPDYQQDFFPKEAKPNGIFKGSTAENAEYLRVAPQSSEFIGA
# Procedure: as §1
# WT EGFR kinase domain, sequence (P00533 669-1210): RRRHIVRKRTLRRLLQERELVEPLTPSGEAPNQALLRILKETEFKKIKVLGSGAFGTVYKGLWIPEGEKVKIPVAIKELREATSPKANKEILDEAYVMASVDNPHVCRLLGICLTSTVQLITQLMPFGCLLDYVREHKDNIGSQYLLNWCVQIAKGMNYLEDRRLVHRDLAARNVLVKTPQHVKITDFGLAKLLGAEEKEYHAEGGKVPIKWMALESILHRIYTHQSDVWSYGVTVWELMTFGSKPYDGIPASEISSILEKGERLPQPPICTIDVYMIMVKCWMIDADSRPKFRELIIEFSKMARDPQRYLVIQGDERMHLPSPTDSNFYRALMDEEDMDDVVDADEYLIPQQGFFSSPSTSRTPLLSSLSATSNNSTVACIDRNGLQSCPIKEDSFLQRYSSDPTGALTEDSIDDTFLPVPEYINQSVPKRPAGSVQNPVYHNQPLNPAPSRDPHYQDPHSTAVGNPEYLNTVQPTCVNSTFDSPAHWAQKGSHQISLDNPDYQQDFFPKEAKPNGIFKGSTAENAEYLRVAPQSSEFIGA
IC50 (WT EGFR kinase domain) [nM],IC50 (B-Raf (V600E)) [nM],IC50 (EGFR L858R kinase domain) [nM],IC50 [1] [nM],SMILES
249,27,292,813,O=C1CCc2c(Oc3ccc4c(c3)[C@H]3[C@H](NC(=O)c5ccc(CN6CCN(CC(F)(F)F)CC6)c(C(F)(F)F)c5)[C@H]3O4)ccnc2N1 [Compound 1.2]
,1.7,,,CCN1CCN(Cc2cc(F)cc(C(=O)N[C@@H]3[C@H]4Oc5ccc(Oc6ccnc7c6CCC(=O)N7)cc5[C@@H]34)c2)CC1 [Compound 1.6]
1.28,5.9,0.57,18,CN1CCN(Cc2ccc(C(=O)N[C@@H]3[C@H]4Oc5ccc(Oc6ccnc7c6CCC(=O)N7)cc5[C@@H]34)cc2)CC1 [Compound 1.11]
59,86,11,47,C[C@@H]1CN(Cc2ccc(C(=O)N[C@@H]3[C@H]4Oc5ccc(Oc6ccnc7c6CCC(=O)N7)cc5[C@@H]34)cc2C(F)(F)F)C[C@H](C)O1 [Compound 1.13]
,5.7,,,CCN1CCN(Cc2ccc(C(=O)N[C@@H]3[C@H]4Oc5ccc(Oc6ccnc7c6CCC(=O)N7)cc5[C@@H]34)cc2Cl)CC1 [Compound 1.18]
0.55,5.4,0.27,1.1,CCN1CCN(Cc2ccc(C(=O)N[C@@H]3[C@H]4Oc5ccc(Oc6ccnc7c6CCC(=O)N7)cc5[C@@H]34)cc2Br)CC1 [Compound 1.19]
1.3,8.8,0.28,3,CN1CCN(Cc2ccc(C(=O)N[C@@H]3[C@H]4Oc5ccc(Oc6ccnc7c6CCC(=O)N7)cc5[C@@H]34)cc2F)CC1 [Compound 1.21]
0.8,4.8,0.23,0.47,CN1CCN(Cc2ccc(C(=O)N[C@@H]3[C@H]4Oc5ccc(Oc6ccnc7c6CCC(=O)N7)cc5[C@@H]34)cc2Cl)CC1 [Compound 1.22]
1.1,5.4,0.24,0.52,CN1CCN(Cc2ccc(C(=O)N[C@@H]3[C@H]4Oc5ccc(Oc6ccnc7c6CCC(=O)N7)cc5[C@@H]34)cc2Br)CC1 [Compound 1.23]
809,,287,885,CCCCCCCCCCCC(=O)N[C@@H]1[C@H]2Oc3ccc(Oc4ccnc5c4CCC(=O)N5)cc3[C@@H]12 [Compound 1.28]
0.69,,0.46,2.7,C[C@@H]1CN(Cc2ccc(C(=O)N[C@@H]3[C@H]4Oc5ccc(Oc6ccnc7c6CCC(=O)N7)cc5[C@@H]34)cc2C(F)(F)F)CCN1 [Compound 1.30]
254,11,29,119,CN1CCN(Cc2ccc(C(=O)N[C@H]3[C@@H]4Oc5ccc(Oc6ccnc7c6CCC(=O)N7)cc5[C@H]34)cc2C(F)(F)F)CC1 [Compound 1.34]
1.7,16,0.91,5.3,CN(C)[C@@H]1CCCN(c2ccc(C(=O)N[C@@H]3[C@H]4Oc5ccc(Oc6ccnc7c6CCC(=O)N7)cc5[C@@H]34)cc2C(F)(F)F)C1 [Compound 1.48]
6.3,11,7.1,25,CCN1CCN(c2ccc(C(=O)N[C@@H]3[C@H]4Oc5ccc(Oc6ccnc7c6CCC(=O)N7)cc5[C@@H]34)cc2C(F)(F)F)CC1 [Compound 1.50]
2.2,18,0.35,0.4,"CCN1CCN(Cc2ccc(C(=O)NC3C4Oc5c(C)cc(Oc6ccnc7c6CCC(=O)N7)cc5C34)cc2C(F)(F)F)CC1 (stereo not shown) [Compound 1.55, 4-((4-ethylpiperazin-1-yl)methyl)-N-(3-methyl-5-((7-oxo-5,6,7,8-tetrahydro-1,8-naphthyridin-4-yl)oxy)-1a,6b-dihydro-1H-cyclopropa[b]benzofuran-1-yl)-3-(trifluoromethyl)benzamide]"
2.5,21,0.4,0.47,Cc1cc(Oc2ccnc3c2CCC(=O)N3)cc2c1OC1C(NC(=O)c3ccc(CN4CCN(C)CC4)c(C(F)(F)F)c3)C21 (stereo not shown) [Compound 1.56]
1.5,6.4,0.5,3.1,"CCN1CCN(Cc2ccc(C(=O)N[C@@H]3[C@H]4Oc5ccc(Oc6ccnc7c6CCC(=O)N7)cc5[C@@H]34)cc2C)CC1 [Compound 1.57, 4-((4-ethylpiperazin-1-yl)methyl)-3-methyl-N-((1S,1aS,6bS)-5-((7-oxo-5,6,7,8-tetrahydro-1,8-naphthyridin-4-yl)oxy)-1a,6b-dihydro-1H-cyclopropa[b]benzofuran-1-yl)benzamide]"
1.2,5.5,0.31,1.8,Cc1cc(C(=O)N[C@@H]2[C@H]3Oc4ccc(Oc5ccnc6c5CCC(=O)N6)cc4[C@@H]23)ccc1CN1CCN(C)CC1 [Compound 1.58]
19,1,4.8,6.2,"Cc1cc(C(=O)N[C@@H]2[C@H]3Oc4ccc(Oc5ccnc6c5CCC(=O)N6)cc4[C@@H]23)ccc1CO [Compound 1.59, 4-(hydroxymethyl)-3-methyl-N-((1S,1aS,6bS)-5-((7-oxo-5,6,7,8-tetrahydro-1,8-naphthyridin-4-yl)oxy)-1a,6b-dihydro-1H-cyclopropa[b]benzofuran-1-yl)benzamide]"
3450,1.5,949,2550,O=C1CCc2c(Oc3ccc4c(c3)[C@H]3[C@H](NC(=O)Cc5cccc(C(F)(F)F)c5)[C@H]3O4)ccnc2N1 [Compound 1.60]
132,1.5,76,237,O=C1CCc2c(Oc3ccc4c(c3)[C@H]3[C@H](NC(=O)c5ccnc(C(F)(F)F)c5)[C@H]3O4)ccnc2N1 [Compound 1.61]
42,1.3,28,114,O=C1CCc2c(Oc3ccc4c(c3)[C@H]3[C@H](NC(=O)c5cncc(C(F)(F)F)c5)[C@H]3O4)ccnc2N1 [Compound 1.62]
1140,2.5,296,234,O=C1CCc2c(Oc3ccc4c(c3)[C@H]3[C@H](NC(=O)c5cccc(C(F)(F)F)n5)[C@H]3O4)ccnc2N1 [Compound 1.63]
1.1,12,< 0.25,0.46,CCN1CCC(Oc2ccc(C(=O)N[C@@H]3[C@H]4Oc5ccc(Oc6ccnc7c6CCC(=O)N7)cc5[C@@H]34)cc2C(F)(F)F)CC1 [Compound 1.64]
1.9,8.1,1.1,11,"CC1CN(Cc2ccc(C(=O)N[C@@H]3[C@H]4Oc5ccc(Oc6ccnc7c6CCC(=O)N7)cc5[C@@H]34)cc2C(F)(F)F)CC(C)N1 (stereo partly drawn) [Compound 1.65, 4-((3,5-dimethylpiperazin-1-yl)methyl)-N-((1S,1aS,6bS)-5-((7-oxo-5,6,7,8-tetrahydro-1,8-naphthyridin-4-yl)oxy)-1a,6b-dihydro-1H-cyclopropa[b]benzofuran-1-yl)-3-(trifluoromethyl)benzamide]"
9.3,3.6,13,81,CN(C)Cc1cc(C(=O)N[C@@H]2[C@H]3Oc4ccc(Oc5ccnc6c5CCC(=O)N6)cc4[C@@H]23)cc(C(F)(F)F)c1 [Compound 1.66]
385,0.6,182,1410,CCCCCC(=O)N[C@@H]1[C@H]2Oc3ccc(Oc4ccnc5c4CCC(=O)N5)cc3[C@@H]12 [Compound 1.67]
98,0.77,71,95,CCCCCCC(=O)N[C@@H]1[C@H]2Oc3ccc(Oc4ccnc5c4CCC(=O)N5)cc3[C@@H]12 [Compound 1.68]
118,2,116,782,CCCCCCCC(=O)N[C@@H]1[C@H]2Oc3ccc(Oc4ccnc5c4CCC(=O)N5)cc3[C@@H]12 [Compound 1.69]
,13,,,"CN1C(C)(C)CC(Oc2ccc(C(=O)N[C@@H]3[C@H]4Oc5ccc(Oc6ccnc7c6CCC(=O)N7)cc5[C@@H]34)cc2C(F)(F)F)CC1(C)C [Compound 1.77, N-((1S,1aS,6bS)-5-((7-oxo-5,6,7,8-tetrahydro-1,8-naphthyridin-4-yl)oxy)-1a,6b-dihydro-1H-cyclopropa[b]benzofuran-1-yl)-4-((1,2,2,6,6-pentamethylpiperidin-4-yl)oxy)-3-(trifluoromethyl)benzamide]"
